The values that follow come from patent US20160039897A1, “COMPOUNDS AND METHODS FOR TREATING OBESITY AND CONTROLLING WEIGHT” (THE UNIVERSITY OF NORTH CAROLINA AT CHAPEL HILL, priority 2013, published 2016).

Assay [1] has as its system primary preadipocytes from IGFBP-2−/− mice. In words: Differentiation of primary preadipocytes (immunoblot of adiponectin, aP2, PPARγ; Oil Red O staining). The settings on record: for % suppression of adiponectin / reduction of PPARγ expression / reduction of aP2 expression / reduction of adiponectin expression: mean±SE; for % suppression of adiponectin: N=3; for relative potency as inhibitor of adipogenesis / preadipocyte differentiation (in words): comparison between peptides and proteins, immunoblot and Oil Red O; for reduction of PPARγ expression / reduction of aP2 expression / reduction of adiponectin expression: peptide 6 μg/ml in differentiation medium vs differentiation medium only, immunoblot relative to β-actin. Type of assay: cell-based, mouse. As to the method: Primary preadipocytes were isolated from epididymal fat pads of 6 week old IGFBP-2^−/− mice. The cells were cultured using a previously described method (Boney, C M et al., 1994). The fat pads were weighed and the tissue was digested with an equal volume (W/V) of collagenase type A (Roche Applied Science, Indianapolis, Ind.) in HEPES buffer (0.1M and 1.5% BSA) for 45 min at 37° C. Following complete digestion, the preadipocytes were separated from the stromal vascular cells by centrifugation at 500×g for 5 min. The pelleted cells were washed with DMEM containing 30 mM glucose (Gibco, Grand Island, N.Y.) and passed through a 100 μm mesh filter (BD Biosciences, Bedford, Mass.). The cells were then plated in 6-well plates (Falcon Corp., Franklin Lakes, N.J.) at a density of 1.2-1.5×10^4 cells/ml in DMEM containing 30 mM glucose supplemented with penicillin (100 U/ml), streptomycin (100 μg/ml), and 10% fetal bovine serum hereafter referred to as standard medium. The cultures had the medium changed every 2 days until they reached confluency. Two day post-confluent cells were then exposed to differentiation medium (serum free DMEM containing 0.5 mM IBMX, 1 μM dexamethasone, and 5 μg/mL insulin) and incubated for 2 days. Experimental treatments that were added to this medium included either wild type IGFBP-2 (3 μg/ml), HBD1 peptide (6 μg/ml), HBD1 control peptide (6 μg/ml), HBD2 peptide (6 μg/ml), HBD2 control peptide (6 μg/ml), HBD1 mutant IGFBP-2 (3 μg/ml) or the HBD2 mutant IGFBP-2 (3 μg/ml). Cultures were maintained for two additional days in the standard medium supplemented with 5 μg/ml insulin. Thereafter, the cultures were kept in the fresh standard medium without insulin for additional two days.
After treatment, the cells were rinsed with PBS for two times and fixed with 10% formalin for 30 min at room temperature. After rinsing with distilled water for twice, 100% propylene glycol (Poly Scientific, Bay Shore, N.Y.) was added and incubated for 5 min. Before adding Oil Red O solution (Poly Scientific, Bay Shore, N.Y.), propylene glycol was removed. The cultures were incubated for 10 min at 60° C. Removing Oil Red O solution, the cultures were incubated with 80% propylene glycol for 5 min, After incubation, the cultures were rinsed with tap water twice. Images were captured using an Olympus IX81 inverted microscope.
Differentiated adipocytes were lysed in ice-cold lysis buffer (Xi et al., 2008). After centrifugation at 14,000×g for 10 min, solubilized proteins were quantified by the Bradford method (Thermo Scientific, Rockford, Ill.). Equal protein amounts of lysates were loaded onto a SDS-polyacrylamide gel and the proteins were separated, then transferred to an Immobilon filter and visualized by immunoblotting using the appropriate antibody. The primary antibody dilutions that were used were 1:1000 for the anti-adiponectin antibody (Affinity BioReagents, Golden, Colo.), 1:500 for the anti-PPARγ antibody (Cell Signaling Technology Inc., Beverly, Mass.), 1:2000 for the anti-apt antibody (ProSci Inc., Poway, Calif.) and 1:5000 for the anti-β-actin antibody (Sigma Chemical Company, St. Louis, Mo.). The immune complexes were visualized using enhanced chemiluminescence (Thermo Fischer Scientific, Rockford, Ill.).
Preadipocytes were prepared from mice and grown in culture as described herein. The respective mouse and human peptides were added to cells and the cells were lysed and the lysates were run on SDS gels as described. Immunoblotting for adiponectin was carried as described. Three concentrations of each peptide, 0.7, 2.0 and 6.0 μg/ml, were compared. The results were expressed as % suppression mean±SE(N=3) and were as follows.
Cell culture of primary preadipocytes. Preadipocytes were isolated from epididymal fat pads of IGFBP-2^−/− mice. The cultures had the medium changed every 2 days until they reached confluency. […]

Assay [2] has as its system IGFBP-2−/− mice. The experiment in a line: Body composition (fat and lean mass) by EchoMRI at weeks 0 and 12. Format: in vivo, mouse. As for the experimental part:
(§1) Body fat and lean muscle mass was measured at weeks 0 and 12 of treatment by magnetic resonance imaging analysis (EchoMRI-100, Echo Medical Systems, Houston, Tex.), a technique that measures fat mass and lean mass in unanesthetized animals (Kelly S A, et. al., 2010). After completion of 12 weeks of treatment, the mice were sacrificed. Blood was collected by cardiac puncture and allowed to sit for 4 hours before centrifuging at 3500 rpm×15 min. The serum was aspirated and stored at −20° C. until analysis. Abdominal inguinal and visceral fat pads were carefully dissected from each animal according to defined anatomical landmarks. All subcutaneous fat between the lower part of the rib cage and the upper thigh was considered abdominal subcutaneous inguinal fat, whereas all fat found along the mesentery starting at the lesser curvature of the stomach and ending at the sigmoid colon was considered visceral fat. Fat depots were blotted dry prior to weighing. The right inguinal fat pad was dissected separately and the triglyceride content of this tissue was determined by a colorimetric analysis (Pointe Scientific, Canton, Mich.), as previously described (Dann H, Kimura S 1992). Serum adiponectin and leptin were measured by ELISA following manufacturer's instructions (Millipore, Billerica, Mass.).
(§2) Body composition and serum adipokine measurement. Body fat and lean mass were measured at weeks 0 and 12 of treatment by magnetic resonance imaging analysis (EchoMRI-100, Echo Medical Systems, Houston, Tex.), using unanesthetized animals. After 12 weeks of treatment, the mice were sacrificed and blood was collected by cardiac puncture and centrifuged at 3500 rpm×15 min. The serum was stored at −20° C. Abdominal inguinal and visceral fat pads were dissected from each animal according to defined anatomical landmarks. Subcutaneous fat between the rib cage and the upper thigh was termed subcutaneous inguinal fat, whereas all fat from the lesser curvature of the stomach to the sigmoid colon was termed visceral fat. Fat depots were blotted dry prior to weighing. The right inguinal fat pad was dissected separately and the triglyceride content of this tissue was determined by a calorimetric analysis (Pointe Scientific, Canton, Mich. Serum adiponectin and leptin were measured by ELISA following manufacturer's instructions (Millipore, Billerica, Mass.).

Assay [3] concerns IGFBP-2−/− mice. The experiment in a line: Inguinal and visceral fat pad, liver and heart weights at sacrifice. Type of assay: in vivo, mouse. The conditions noted are these: after 12 weeks; for Inguinal fat / Visceral fat: pegylated peptide 50 μg IP 3 times/week, mean±SE. As to the method: as §1, §2
The subject of assay [4] is IGFBP-2−/− mice. The experiment in a line: Triglyceride content of right inguinal fat pad (colorimetric). Type of assay: in vivo, mouse. The conditions noted are these: after 12 weeks; vs control peptide. As to the method:
as §1, with “All subcutaneous fat between the lower part of the rib cage and the upper thigh was considered abdominal subcutaneous inguinal fat, whereas all fat found along the mesentery starting at the lesser curvature of the stomach and ending at the sigmoid colon was considered visceral fat. Fat depots were blotted dry prior to weighing.” left out
Body composition and serum adipokine measurement. Body fat and lean mass were measured at weeks 0 and 12 of treatment by magnetic resonance imaging analysis (EchoMRI-100, Echo Medical Systems, Houston, Tex.), using unanesthetized animals. […]

Assay [5] concerns IGFBP-2−/− mice. The experiment in a line: Serum adiponectin and leptin by ELISA. Type of assay: in vivo, mouse. The settings on record: after 12 weeks. As to the method: as §1, §2
On the technique in general: In an ELISA, binding on a coated surface is turned into a signal by an enzyme label.

Where [6] appears, read: weeks 0 to 12, pegylated peptide 50 μg IP 3 times/week.
The mark [7] stands for this setting: weeks 0 to 12, pegylated peptide 50 μg IP 3 times/week, mean±SE.

For the sequence KHGLYNLKQCKMSLNGQR [HBD2 peptide], in assay [1] (0.7 μg/ml peptide), the “% suppression of adiponectin” value stood at 49.4 ± 10%. Moreover, in assay [1] (2.0 μg/ml peptide), the “% suppression of adiponectin” value came to 87.9 ± 6.2%. Further, the “% suppression of adiponectin” value in assay [1] (6.0 μg/ml peptide) is on record as 96.9 ± 7.0%. The “potency in inhibiting preadipocyte differentiation relative to the HBD1 peptide” value in assay [1] (HBD2 peptide vs HBD1 peptide) is 1.8 fold. For the same sequence, in assay [1], the “relative potency as inhibitor of adipogenesis / preadipocyte differentiation (in words)” value is “most potent inhibitors of adipogenesis”, the “reduction of PPARγ expression” value stood at 67±7%, the “reduction of aP2 expression” value is listed as “completely inhibited” and the “reduction of adiponectin expression” value is recorded as “completely inhibited”. Besides, in assay [1] (listed as human peptide), the “relative potency as inhibitor of adipogenesis / preadipocyte differentiation (in words)” value is recorded as “equipotent”. In the assay on IGFBP-2−/− mice [2] (12 weeks, pegylated peptide 50 μg IP 3 times/week), the “reduction in body fat mass gain (fat as percentage of body weight) compared to control peptide” value is 48±9%. The “lean mass change expressed as percentage of body weight (relative reduction)” value in the assay with IGFBP-2−/− mice [2] (setting [6]) is on record as 2.1±0.8%. Also, in the assay on IGFBP-2−/− mice [2] (setting [7]), the Fat mass increase was found to be 0.58 ± 0.12 g and the Lean mass increase was 3.10 ± 0.57 g. Also, in the assay with IGFBP-2−/− mice [3], the “reduction of inguinal fat pad (percentage of body weight) compared to control peptide” value came to 32±7%, the “reduction of visceral fat (percentage of body weight) compared to control peptide” value turned out to be 44±7%, the Inguinal fat was found to be 0.23 ± 0.02 g and the Visceral fat worked out at 0.25 ± 0.02 g. Besides, in the assay with IGFBP-2−/− mice [4], the “reduction of triglyceride content in the inguinal fat pad” value was found to be 37±9%. Also, in the assay on IGFBP-2−/− mice [5], the “increase of serum leptin level compared to control peptide treated mice” value worked out at 57±9%, the “serum adiponectin level lower than in control peptide treated mice” value was 36±4% and the “serum adiponectin level reduction compared to HBD1 peptide treated mice” value is 24±5%.

On to KHLSLEEPKKLRP [HBD1 peptide], for which, in assay [1], the “relative potency as inhibitor of adipogenesis / preadipocyte differentiation (in words)” value was “less activity”, the “reduction of PPARγ expression” value turned out to be 47±9%, the “reduction of aP2 expression” value came to 51±2% and the “reduction of adiponectin expression” value is 66±10%. Also, the “relative potency as inhibitor of adipogenesis / preadipocyte differentiation (in words)” value in assay [1] (listed as mouse HBD1 peptide) was “equivalent in inhibiting preadipocyte differentiation”. Moreover, the “inhibition of fat mass acquisition” value in the assay on IGFBP-2−/− mice [2] (12 weeks) is 31%. Also, in the assay on IGFBP-2−/− mice [2] (setting [6]), the “lean mass change expressed as percentage of body weight (relative reduction)” value worked out at 4.1±1.1%. Moreover, in the assay on IGFBP-2−/− mice [3], the “reduction of inguinal fat pad (percentage of body weight) compared to control peptide” value is recorded as “had no effect”, the “reduction of visceral fat (percentage of body weight) compared to control peptide” value is given as 24±5%, the Inguinal fat result is listed as “had no effect” and the Visceral fat was determined as 0.34 ± 0.01 g. In addition, the “reduction of triglyceride content in the inguinal fat pad” value in the assay with IGFBP-2−/− mice [4] was 22±2%. For the same sequence, the “increase of serum leptin level compared to control peptide treated mice” value with IGFBP-2−/− mice [5] is listed as “had no effect”.
